Results on six compounds are retold here after patent publication US12011476B2, “Treatments of oxidative stress conditions” (The University of Vermont and State Agricultural College, priority 2012, dated 2024).

Holding throughout (format): cell-based, murine
The test system of experiment [1] is Fas-SSG. The experiment in a line: Immunoprecipitation of S-glutathionylated Fas (Fas-SSG) after FasL stimulation. The settings on record: FasL-stimulated cells, compared to the respective control (muscimol, DMSO, control siRNA). As for the experimental part:
(§1) Exposure of cells to FasL: C10 cells were treated with 150 ng/ml FLAG-FasL (Alexis, San Diego, CA), plus 0.5 micrograms/ml anti-FLAG cross linking antibody, M2 (Sigma, St. Louis, MO). Primary lung fibroblasts and MTECs were treated with 300 ng/ml FasL, plus 1 microgram/ml M2. As reagent controls, cells were treated with M2 alone.
Immunoprecipitation of S-glutathionylated Fas: Immunoprecipitation of S-glutathionylated Fas was performed using established techniques.
C10 lung epithelial cells were stimulated with Flag tagged FasL plus anti-Flag (M2) crosslinking antibody, M2 alone (0), and at the indicated times, lysates were prepared and immunoprecipitated (IP) using an anti-GSH antibody. The subsequent western blot was probed with anti-Fas antibody (top panel). The +DTT control reflects lysates prepared from FasL-stimulated cells at 120 min treated with 25 mM DTT prior to IP with the anti-GSH antibody. Bottom panels: Content of Fas and Grx1 in whole cell lysates (WCL). […] C10 lung epithelial cells were stimulated with FasL plus M2 crosslinking antibody, or M2 alone, and at the indicated times, supernatants were collected. Free GSH was measured. * p<0.05 (ANOVA), compared to M2 controls at the same time points.

Another experiment has as its system caspase 8. Nature of the experiment: Caspase-Glo 8 assay after FasL stimulation. Conditions: FasL-stimulated cells, compared to the respective control. As to the method:
as §1
(§2) Caspase-Glo assay: Caspase-8 and caspase-3 activities were measured using a Caspase-Glo 8 and Caspase-Glo 3/7 (Promega, Madison, WI) reagents, respectively according to the manufacturer's protocol (Promega, Madison, WI). Results were expressed in Relative Luminescence Units (RLU), after subtraction of background luminescence values. All results were obtained from 3 independent experiments conducted in triplicate.

The next experiment concerns caspase 3. Nature of the experiment: Caspase-Glo 3/7 assay after FasL stimulation. The settings on record: FasL-stimulated cells, compared to the respective control. As for the experimental part:
as §1, §2

The subject of another experiment is C10 cells. Nature of the experiment: Cell viability assay (MTT) after FasL stimulation. The settings on record: MTT assay after stimulation with FasL. As for the experimental part: Cell viability assay: C10 cells or primary lung fibroblasts were plated in 12-well dishes. The MTT (3-(4,5-dimethylthiazol-2-yl)-2,5-diphenyltetrazolium bromide) assay was performed using known techniques. Results were obtained from 3 independent experiments conducted in triplicate.
Cells were exposed to FasL, and cell lysates processed as in FIG. 1A. Western blots from WCL were sequentially probed for Fas, ERp57 and GSTP1. […] Cells were treated with FasL, and lysates processed as in FIG. 2B. […] Cells were transfected with ERp57 and GSTP1 siRNA (E+P), and 24 hours later were exposed to FasL+M2 crosslinking antibody (FL), or M2 alone for 30 min. Cell lysates were subjected to IP of the DISC. Western blots were sequentially probed for Fas, FADD, procaspase 8, ERp57 and GSTP1. WCL: assessment of the same proteins in whole cell lysates, as a control.

Another experiment deals with Fas-SH. The experiment in a line: Labeling of free sulfhydryls of Fas (Fas-SH) with MPB, oxidative processing. Conditions: FasL-stimulated cells. As for the experimental part:
Microscopy: Cells were fixed in 4% formalin and permeabilizied with 0.2% Triton-X100 in PBS. Permeabilized cells were blocked in PBS containing 2% BSA for 1 hour. Cells were sequentially incubated with primary antibodies (1:500-rabbit anti-ERp57/mouse anti-Fas) and secondary antibodies (1:1000-anti-rabbit-Alexa Fluor 488/anti-mouse Alexa Fluor 647). The nucleus was stained with DAPI (1:4000). Images were acquired using a Zeiss LSM 510 META Confocal Laser Scanning Imaging System. Images were captured at 40× magnification in oil immersion. The image files were converted to Tiff format. Brightness and contrast were adjusted equally in all images. Labeling of free sulfhydryls using biotinylated N-ethyl maleimide (MPB): Cells were lysed in HEPES buffer, pH 7.4 containing 0.5% NP40, with 150 micromolar MPB for 1 hour at ambient temperature. Lysates were centrifuged at 14,000 rpm and passed through a microbiospin (Bio-Rad) column to separate free MPB. The eluent whole cell lysate was immunoprecipitated using an anti-Fas antibody and sequentially probed using streptavidin HRP and anti-Fas antibody.
The transmembrane domain is underlined. ELD; extracellular ligand binding domain, CDD; Cytoplasmic Death Domain. […] C10 lung epithelial cells were treated with FasL. The lysates were labeled with MPB, and IPed using an anti-Fas antibody. […]

The subject of experiment [2] is Fas-SSG. The experiment in a line: Cell fractionation and IP of Fas-SSG (ER vs cytosol/pm). The settings on record: FasL-stimulated cells, vs DMSO vehicle control, FIG. 3D. As for the experimental part: Cell Fractionation: Cell fractionation was carried out using the Calbiochem ProteoExtractTR (Cat. No. 539790) subcellular proteome extraction kit per the manufacturer's protocol.
Proteins from each fraction were subjected to IP using anti-GSH antibody. Western blots were probed for Fas. 25 micrograms of total protein from each fractions were separated on a SDS-PAGE and probed for Fas, ERp57, GSTP1, Prx1 (cytosolic protein), Flotillinl (Flot1, plasma membrane protein), calreticulin (CRT, an ER restricted protein), histone H3 (nuclear marker). […] Cells were treated with FasL, stained with ERp57, Fas, and the nuclear marker, DAPI. Merged images indicate co-localization of Fas and ERp57. […] Proteins from fractions characterized in FIG. 3A were subjected to IP using anti-GSTP1 antibodies, or control IgG. […] Epithelial cells were treated with FasL, in the presence or absence of Brefeldin A. Cells were fractionated as in FIG. 3A, and proteins from each fraction were subjected to IP using anti-GSH antibody. Western blots were probed for Fas. 25 micrograms of total protein from each fraction was separated on a SDS-PAGE and probed for Fas, ERp57, GSTP1, Prx1 (cytosol), Flot1 (plasma membrane), CRT (ER), H3 (nucleus).

A further experiment concerns the target T1, GSTP (Mus musculus, UniProt P19157).
T1 construct: endogenous in cells; host or cells: murine lung epithelial cells (C10)
Nature of the experiment: GST activity assay (CDNB-GST) in treated cells. Conditions: cells incubated with 50 micromolar for 2 hours, vs 0.2% DMSO, FIG. 5F. As for the experimental part:
GST activity assay: The GST activity was determined using a colorimetric activity assay kit (ab65326, Abcam, Cambridge, MA) based on the GST-catalyzed reaction between GSH and the GST substrate, CDNB (1-chloro-2,4-dinitrobenzene). The GST-catalyzed formation of CDNB-GSH produced a dinitrophenyl thioether which can be detected spectrophotometrically at 340 nm.
(§3) The results are expressed as nmol of CDNB […]/min/mg protein. * p<0.05 (Student t-test) compared to DMSO controls. […] Cells were pre-incubated TLK-199 or DMSO for 2 hours, prior to stimulation with FasL. Lysates were processed as in FIG. 1A. Inhibition of GSTP decreased the activities of caspases 8 (FIG. 5H) and 3 (FIG. 5I) induced by FasL. * p<0.05 ANOVA, compared to DMSO controls. […] Mus: muscimol control. * p<0.05 ANOVA, compared to TNF-alpha+CHX controls.

The next experiment has as its system caspase-3. Nature of the experiment: TNF-alpha plus cycloheximide (CHX) induced caspase-3 activation. Conditions: pre-incubation before TNF-alpha in the presence of cycloheximide, FIG. 5J. As for the experimental part: as §2
In addition to Fas, the extracellular/ligand binding domains of other members of the TNF receptor superfamily also contained cysteines that form intra-molecular disulfide bridges (—S—S—) to create the ligand binding domain. These experiments therefore determined whether ERp57-mediated oxidative processing regulates TNFR-dependent apoptosis. Cells were incubated with the ERp57 inhibitor, thiomuscimol prior to stimulation with TNF-alpha in the presence of cycloheximide (CHX) to induce apoptosis.
as §3

The next experiment relates to ERp57. Nature of the experiment: Protein disulfide isomerase (PDI) assay, insulin reduction, lysates of treated cells. As to the method:
Protein disulfide isomerase (PDI) assay: 10 micrograms of total cell lysates were incubated with folded insulin, fibril protein binding dye for 1 hr. The fluorescence was then measured in a microplate reader set at a excitation of 500 nm and an emission of 603 nm, per the manufacturer's protocol (Proteostat™ PDI assay kit ENZ-51024-KP002). All results were obtained from 3 independent experiments conducted in triplicate.
Pharmacologic inhibition of ERp57 and GSTP1 decreased Fas-SSG and caspase activation: next, the contribution of the catalytic activities of ERp57 and GSTP in mediating S-glutathionylation of Fas, and subsequent activation of caspases, was asessed.
The results are expressed as relative fluorescence units (RFU). * p<0.05 (Student t-test) compared to muscimol treated cells. […] Cell lysates were processed as in FIG. 1A to determine Fas-SSG (FIGS. 5D and 5E). Inhibition of ERp57 decreased caspase 8, and caspase 3 activities. * p<0.05 ANOVA, compared to muscimol-treated cells.

T1 sequence (P19157 2-210): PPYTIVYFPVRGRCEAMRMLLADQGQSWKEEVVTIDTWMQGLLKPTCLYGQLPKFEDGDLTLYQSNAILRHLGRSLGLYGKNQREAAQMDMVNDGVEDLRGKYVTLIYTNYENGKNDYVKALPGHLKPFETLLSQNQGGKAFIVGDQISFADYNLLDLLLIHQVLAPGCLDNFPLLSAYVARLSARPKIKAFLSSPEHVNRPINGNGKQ

Regarding `CC(=O)OCOC(=O)CN(CC(=O)OCOC(C)=O)c1ccccc1OCCOc1ccccc1N(CC(=O)OCOC(C)=O)CC(=O)OCOC(C)=O` [BAPTA-AM], in the experiment on Fas-SSG [1], the “Fas-SSG in response to FasL” value is “substantially diminished”. The “caspase 8 activity in response to FasL” value with caspase 8 was “decreased”. For the same compound, the “caspase 3 activity in response to FasL” value with caspase 3 was “decreased”. In addition, the “cell survival / cell death in response to FasL” value in the experiment on C10 cells was “increased cell survival”. In addition, the “Fas-SH content (oxidative processing of Fas) after FasL” value in the experiment on Fas-SH is listed as “completely prevented the loss of Fas-SH groups”.
Turning to `C[C@H]1CCC/C=C/[C@@H]2C[C@H](O)C[C@H]2[C@H](O)/C=C/C(=O)O1` [Brefeldin A], in the experiment on Fas-SSG [2], the “movement of Fas-SSG from ER to cytosol/pm” value was “Fas-SSG remained restricted to the ER fraction”.
With `CCOC(=O)[C@@H](N)CCC(=O)N[C@@H](CSCc1ccccc1)C(=O)N[C@@H](C(=O)OCC)c1ccccc1` [TLK199, gamma-glutamyl-S-(benzyl)cysteinyl-R-phenyl glycine diethyl ester], the “decrease in GSTP activity” value at GSTP turned out to be 80%. The “Fas-SSG in response to FasL” value in the experiment on Fas-SSG [1] is “diminished”. The “caspase 8 activity in response to FasL” value with caspase 8 is reported as “diminished”. Further, the “caspase 3 activity in response to FasL” value in the experiment on caspase 3 is given as “diminished”.
Take `CC1(C)CC(=O)CC(=O)C1` [dimedone, 5,5-dimethyl-1,3-cyclohexanedione]: the “Fas-SSG in response to FasL” value in the experiment on Fas-SSG [1] is listed as “abolished”.
For `NCc1cc(=O)[nH]o1` [muscimol], the “TNF-alpha/CHX-mediated activation of caspase-3” value in the experiment on caspase-3 is reported as “did not affect apoptosis”.
Regarding `NCc1cc(O)ns1` [thiomuscimol, 5-aminomethyl-3-isothiazolol], in the experiment on ERp57 (FIG. 10, THM vs DMSO, lysates incubated with Bacitracin for 2 hrs as positive control), the “inhibition of ERp57, as measured by RFU” value is “exhibited inhibition of ERp57”. Further, the “decrease in insulin reducing activity” value in the experiment on ERp57 (epithelial cells incubated with thiomuscimol (10 micromolar), compared to muscimol controls, FIG. 5A) was approximately 50%. In addition, the “Fas-SSG in response to FasL” value in the experiment on Fas-SSG [1] is “significantly attenuated”. The “caspase 8 activity in response to FasL” value in the experiment on caspase 8 is given as “corresponding decreases”. Moreover, the “caspase 3 activity in response to FasL” value with caspase 3 is given as “corresponding decreases”. The “TNF-alpha/CHX-mediated activation of caspase-3” value with caspase-3 was “significantly decreased”.
